Laboratory results from ChEMBL document CHEMBL3085767, “Polypharmacology - foe or friend?” (J Med Chem, 2013).

Key:
D(2) dopamine receptor = D(2) dopamine receptor (Homo sapiens, UniProt P14416); assay: Binding affinity to dopamine D2 receptor (unknown origin) by radioligand binding assay
[1] = molecular target: 5-hydroxytryptamine receptor 7 (Homo sapiens, UniProt P34969); assay: Binding affinity to 5HT7 receptor (unknown origin) by radioligand binding assay
[2] = molecular target: T1, Adrenergic receptor alpha-1 (Homo sapiens, UniProt P35348+P25100+P35368); assay: Binding affinity to adrenergic alpha1 receptor (unknown origin) by radioligand binding assay
T1 sequence (P35348 whole entry): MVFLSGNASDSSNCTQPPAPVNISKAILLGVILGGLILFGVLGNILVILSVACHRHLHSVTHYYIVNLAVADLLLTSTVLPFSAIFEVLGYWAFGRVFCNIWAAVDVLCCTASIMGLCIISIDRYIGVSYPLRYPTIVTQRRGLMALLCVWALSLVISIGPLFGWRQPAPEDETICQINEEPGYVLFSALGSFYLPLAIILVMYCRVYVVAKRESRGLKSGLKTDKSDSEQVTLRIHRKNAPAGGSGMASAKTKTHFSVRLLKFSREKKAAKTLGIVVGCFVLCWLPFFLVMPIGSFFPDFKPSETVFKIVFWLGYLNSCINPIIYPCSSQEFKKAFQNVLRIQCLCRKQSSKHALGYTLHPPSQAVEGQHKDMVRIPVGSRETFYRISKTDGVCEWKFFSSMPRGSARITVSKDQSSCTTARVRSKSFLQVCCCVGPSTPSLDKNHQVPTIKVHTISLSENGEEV
T1 sequence (P25100 whole entry): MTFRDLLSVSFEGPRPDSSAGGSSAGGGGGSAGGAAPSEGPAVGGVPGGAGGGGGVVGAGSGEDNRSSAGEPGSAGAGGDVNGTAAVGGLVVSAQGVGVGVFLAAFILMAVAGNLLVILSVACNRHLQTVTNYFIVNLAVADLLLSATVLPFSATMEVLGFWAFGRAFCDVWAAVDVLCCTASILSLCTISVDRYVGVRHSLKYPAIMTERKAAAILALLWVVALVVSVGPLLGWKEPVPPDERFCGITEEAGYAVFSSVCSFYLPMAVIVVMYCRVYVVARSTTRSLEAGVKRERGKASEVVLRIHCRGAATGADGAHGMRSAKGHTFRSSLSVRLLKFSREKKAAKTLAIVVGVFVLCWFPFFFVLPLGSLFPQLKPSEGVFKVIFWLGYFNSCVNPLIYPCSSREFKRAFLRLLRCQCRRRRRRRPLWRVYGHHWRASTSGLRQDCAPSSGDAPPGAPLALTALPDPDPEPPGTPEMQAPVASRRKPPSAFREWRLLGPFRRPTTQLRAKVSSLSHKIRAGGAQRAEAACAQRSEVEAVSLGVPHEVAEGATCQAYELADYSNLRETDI
T1 sequence (P35368 whole entry): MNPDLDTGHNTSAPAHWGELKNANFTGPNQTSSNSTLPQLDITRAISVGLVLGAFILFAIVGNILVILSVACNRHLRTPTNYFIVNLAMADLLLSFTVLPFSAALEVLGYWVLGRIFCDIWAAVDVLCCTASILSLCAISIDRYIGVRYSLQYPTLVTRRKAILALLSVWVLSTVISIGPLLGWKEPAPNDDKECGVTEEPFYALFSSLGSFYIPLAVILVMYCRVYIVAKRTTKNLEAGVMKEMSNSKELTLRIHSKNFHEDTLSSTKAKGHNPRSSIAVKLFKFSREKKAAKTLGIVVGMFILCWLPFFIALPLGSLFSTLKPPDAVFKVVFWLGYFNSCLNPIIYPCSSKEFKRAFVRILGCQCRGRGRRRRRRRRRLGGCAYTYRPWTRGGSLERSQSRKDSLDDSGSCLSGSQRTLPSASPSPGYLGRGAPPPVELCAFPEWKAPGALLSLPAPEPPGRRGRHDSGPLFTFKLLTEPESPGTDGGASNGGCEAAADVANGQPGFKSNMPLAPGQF

Sequence of D(2) dopamine receptor (P14416 whole entry): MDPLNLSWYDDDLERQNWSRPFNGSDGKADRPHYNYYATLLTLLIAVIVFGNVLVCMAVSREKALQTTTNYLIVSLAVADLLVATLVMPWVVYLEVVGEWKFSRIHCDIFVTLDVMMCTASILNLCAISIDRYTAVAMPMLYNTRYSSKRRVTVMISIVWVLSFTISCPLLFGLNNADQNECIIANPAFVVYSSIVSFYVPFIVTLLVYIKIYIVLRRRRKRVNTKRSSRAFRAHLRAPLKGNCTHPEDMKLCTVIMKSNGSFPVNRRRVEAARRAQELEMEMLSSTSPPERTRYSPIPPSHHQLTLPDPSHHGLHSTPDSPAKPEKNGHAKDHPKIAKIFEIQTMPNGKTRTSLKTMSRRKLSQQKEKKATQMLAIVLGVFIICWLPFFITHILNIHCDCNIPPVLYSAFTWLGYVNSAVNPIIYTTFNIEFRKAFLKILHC
Sequence of 5-hydroxytryptamine receptor 7 (P34969 whole entry): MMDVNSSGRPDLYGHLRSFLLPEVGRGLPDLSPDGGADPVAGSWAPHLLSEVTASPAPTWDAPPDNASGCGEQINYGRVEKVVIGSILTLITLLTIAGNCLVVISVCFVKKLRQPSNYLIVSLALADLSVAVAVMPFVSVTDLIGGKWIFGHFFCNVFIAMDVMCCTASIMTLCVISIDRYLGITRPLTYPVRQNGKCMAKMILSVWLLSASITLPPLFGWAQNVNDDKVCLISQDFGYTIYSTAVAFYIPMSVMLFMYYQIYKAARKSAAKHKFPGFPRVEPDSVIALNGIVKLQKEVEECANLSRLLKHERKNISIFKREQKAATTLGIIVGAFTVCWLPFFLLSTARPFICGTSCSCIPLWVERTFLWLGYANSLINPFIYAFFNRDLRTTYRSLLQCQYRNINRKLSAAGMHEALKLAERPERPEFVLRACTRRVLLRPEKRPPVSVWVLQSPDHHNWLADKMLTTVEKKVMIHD

| IC50 (D(2) dopamine receptor) [nM] | Ki [1] [nM] | Ki [2] [nM] | SMILES |
| --- | --- | --- | --- |
| 410 |  |  | CN(C)CCCN1c2ccccc2CCc2ccccc21 [IMIPRAMINE] |
| 100 |  |  | CC(CN1c2ccccc2Sc2ccccc21)N(C)C (centres undefined) [PROMETHAZINE] |
|  | 6 | 11 | O=C1Cc2cc(CCN3CCN(c4nsc5ccccc45)CC3)c(Cl)cc2N1 [ZIPRASIDONE] |
